{"source": "patent US20100003711A1", "about": "“Methods to identify therapeutic agents” (THE SCRIPPS RESEARCH INSTITUTE, priority 2005, published 2010)", "key": {"J774.1 macrophages": {"system": "J774.1 macrophages", "assay": "Lipid-loading assay (foam cell formation)", "assay_type": "cell-based, murine", "details": "LDL 100 μg/mL with 4a or 5a (20 μM), 72 h, unactivated J774.1 macrophages", "procedure": "Lipid-loading assay (foam cell formation). J774.1 macrophages were incubated in ATCC-recommended media containing 10% fetal bovine serum under a controlled atmosphere of 5 or 7% CO2 at 37° C., in 8-well chamber slides. […] At termination, cells were washed twice with PBS (pH 7.4). The cells were then fixed with 6% (v/v) paraformaldehyde in PBS for 30 minutes, rinsed with propylene glycol for 2 minutes and lipids were stained with 5 mg/ml Oil Red 0 for 8 minutes. The cells were counterstained with Harris' hematoxylin for 45 seconds, and background staining was removed with 6% paraformaldehyde followed by washing once in PBS and once in tap water. Cover slips were mounted onto the glass slides using glycerol and the slide preparations were examined by light microscopy. The number of lipid-laden cells was scored out of a total of at least 100 cells counted in a single field in each slide, and expressed as a percentage of total cells. Photographs were taken at 100× magnification."}, "E-selectin (CD62E)": {"system": "E-selectin (CD62E)", "assay": "Endothelial adhesion molecule expression by ELISA, E-selectin", "assay_type": "cell-based, human", "procedure": "(§1) Endothelial cell surface adhesion molecule expression was measured by ELISA, using anti-human CD54 (ICAM-1), CD106 (VCAM-1) and CD62E (E-Selectin) antibodies (Leinco Technologies, Inc., St. Louis, Mo.). The ELISA method was modified from previously described procedures.\n(§2) Cells were then incubated with antibodies to VCAM-1, E-selectin, or ICAM-1 diluted 1:400 in PBS containing 5% FCS at 37° C. for 30 min. Wells were washed two times with PBS, then incubated with horseradish peroxidase (HRP)-conjugated goat anti-mouse IgG (Southern Biotechnology Associates, Birmingham, Ala., USA) in PBS/5% FCS at 37° C. for 30 min. The wells were washed four times with PBS, then incubated with H2O2/3,3′,5,5′-tetramethyl-benzidine peroxidase substrate (Pierce Chemical, Rockford, Ill., USA) for 30 min in the dark. The reaction was stopped by adding 25 μl of 8 N H2SO4, and the plates read on a microplate reader, blanking on wells stained with only secondary antibody. Each assay was performed in triplicate and the data are reported as the mean±SEM as a percentage of the expression level of the vehicle. To study the effect of cholesterol ozonation product 5a concentration (5-50 μM) on E-selectin expression, the assay was performed in an identical fashion as described above, with each point being the mean±SEM of at least duplicate measurements."}, "ICAM-1 (CD54)": {"system": "ICAM-1 (CD54)", "assay": "Endothelial adhesion molecule expression by ELISA, ICAM-1", "assay_type": "cell-based, human", "procedure": "as §1, §2"}, "[1]": {"assay": "Aldolization of secoketoaldehyde 4a with atherosclerotic artery and blood fractions (1H NMR)", "assay_type": "in vitro ADME, human", "details": "in the presence of lyophilized PBS", "procedure": "Aldolization of secoketoaldehyde 4a with atherosclerotic artery and bloodfractions. […] To this solution was added either a) atherosclerotic artery (2.1 mg) that had been homogenized in PBS (1 ml) in a tissue homogenizer and then lyophilized to dryness, b) lyophilized human blood (1 ml), c) lyophilized human plasma (1 ml) or d) PBS lyophilized (1 ml). At time points samples were removed and analyzed by ^1H NMR vide supra."}, "LDL / apoB-100": {"molecular_target": "LDL / apoB-100 (Homo sapiens, UniProt P04114)", "sequence (P04114 28-4563)": "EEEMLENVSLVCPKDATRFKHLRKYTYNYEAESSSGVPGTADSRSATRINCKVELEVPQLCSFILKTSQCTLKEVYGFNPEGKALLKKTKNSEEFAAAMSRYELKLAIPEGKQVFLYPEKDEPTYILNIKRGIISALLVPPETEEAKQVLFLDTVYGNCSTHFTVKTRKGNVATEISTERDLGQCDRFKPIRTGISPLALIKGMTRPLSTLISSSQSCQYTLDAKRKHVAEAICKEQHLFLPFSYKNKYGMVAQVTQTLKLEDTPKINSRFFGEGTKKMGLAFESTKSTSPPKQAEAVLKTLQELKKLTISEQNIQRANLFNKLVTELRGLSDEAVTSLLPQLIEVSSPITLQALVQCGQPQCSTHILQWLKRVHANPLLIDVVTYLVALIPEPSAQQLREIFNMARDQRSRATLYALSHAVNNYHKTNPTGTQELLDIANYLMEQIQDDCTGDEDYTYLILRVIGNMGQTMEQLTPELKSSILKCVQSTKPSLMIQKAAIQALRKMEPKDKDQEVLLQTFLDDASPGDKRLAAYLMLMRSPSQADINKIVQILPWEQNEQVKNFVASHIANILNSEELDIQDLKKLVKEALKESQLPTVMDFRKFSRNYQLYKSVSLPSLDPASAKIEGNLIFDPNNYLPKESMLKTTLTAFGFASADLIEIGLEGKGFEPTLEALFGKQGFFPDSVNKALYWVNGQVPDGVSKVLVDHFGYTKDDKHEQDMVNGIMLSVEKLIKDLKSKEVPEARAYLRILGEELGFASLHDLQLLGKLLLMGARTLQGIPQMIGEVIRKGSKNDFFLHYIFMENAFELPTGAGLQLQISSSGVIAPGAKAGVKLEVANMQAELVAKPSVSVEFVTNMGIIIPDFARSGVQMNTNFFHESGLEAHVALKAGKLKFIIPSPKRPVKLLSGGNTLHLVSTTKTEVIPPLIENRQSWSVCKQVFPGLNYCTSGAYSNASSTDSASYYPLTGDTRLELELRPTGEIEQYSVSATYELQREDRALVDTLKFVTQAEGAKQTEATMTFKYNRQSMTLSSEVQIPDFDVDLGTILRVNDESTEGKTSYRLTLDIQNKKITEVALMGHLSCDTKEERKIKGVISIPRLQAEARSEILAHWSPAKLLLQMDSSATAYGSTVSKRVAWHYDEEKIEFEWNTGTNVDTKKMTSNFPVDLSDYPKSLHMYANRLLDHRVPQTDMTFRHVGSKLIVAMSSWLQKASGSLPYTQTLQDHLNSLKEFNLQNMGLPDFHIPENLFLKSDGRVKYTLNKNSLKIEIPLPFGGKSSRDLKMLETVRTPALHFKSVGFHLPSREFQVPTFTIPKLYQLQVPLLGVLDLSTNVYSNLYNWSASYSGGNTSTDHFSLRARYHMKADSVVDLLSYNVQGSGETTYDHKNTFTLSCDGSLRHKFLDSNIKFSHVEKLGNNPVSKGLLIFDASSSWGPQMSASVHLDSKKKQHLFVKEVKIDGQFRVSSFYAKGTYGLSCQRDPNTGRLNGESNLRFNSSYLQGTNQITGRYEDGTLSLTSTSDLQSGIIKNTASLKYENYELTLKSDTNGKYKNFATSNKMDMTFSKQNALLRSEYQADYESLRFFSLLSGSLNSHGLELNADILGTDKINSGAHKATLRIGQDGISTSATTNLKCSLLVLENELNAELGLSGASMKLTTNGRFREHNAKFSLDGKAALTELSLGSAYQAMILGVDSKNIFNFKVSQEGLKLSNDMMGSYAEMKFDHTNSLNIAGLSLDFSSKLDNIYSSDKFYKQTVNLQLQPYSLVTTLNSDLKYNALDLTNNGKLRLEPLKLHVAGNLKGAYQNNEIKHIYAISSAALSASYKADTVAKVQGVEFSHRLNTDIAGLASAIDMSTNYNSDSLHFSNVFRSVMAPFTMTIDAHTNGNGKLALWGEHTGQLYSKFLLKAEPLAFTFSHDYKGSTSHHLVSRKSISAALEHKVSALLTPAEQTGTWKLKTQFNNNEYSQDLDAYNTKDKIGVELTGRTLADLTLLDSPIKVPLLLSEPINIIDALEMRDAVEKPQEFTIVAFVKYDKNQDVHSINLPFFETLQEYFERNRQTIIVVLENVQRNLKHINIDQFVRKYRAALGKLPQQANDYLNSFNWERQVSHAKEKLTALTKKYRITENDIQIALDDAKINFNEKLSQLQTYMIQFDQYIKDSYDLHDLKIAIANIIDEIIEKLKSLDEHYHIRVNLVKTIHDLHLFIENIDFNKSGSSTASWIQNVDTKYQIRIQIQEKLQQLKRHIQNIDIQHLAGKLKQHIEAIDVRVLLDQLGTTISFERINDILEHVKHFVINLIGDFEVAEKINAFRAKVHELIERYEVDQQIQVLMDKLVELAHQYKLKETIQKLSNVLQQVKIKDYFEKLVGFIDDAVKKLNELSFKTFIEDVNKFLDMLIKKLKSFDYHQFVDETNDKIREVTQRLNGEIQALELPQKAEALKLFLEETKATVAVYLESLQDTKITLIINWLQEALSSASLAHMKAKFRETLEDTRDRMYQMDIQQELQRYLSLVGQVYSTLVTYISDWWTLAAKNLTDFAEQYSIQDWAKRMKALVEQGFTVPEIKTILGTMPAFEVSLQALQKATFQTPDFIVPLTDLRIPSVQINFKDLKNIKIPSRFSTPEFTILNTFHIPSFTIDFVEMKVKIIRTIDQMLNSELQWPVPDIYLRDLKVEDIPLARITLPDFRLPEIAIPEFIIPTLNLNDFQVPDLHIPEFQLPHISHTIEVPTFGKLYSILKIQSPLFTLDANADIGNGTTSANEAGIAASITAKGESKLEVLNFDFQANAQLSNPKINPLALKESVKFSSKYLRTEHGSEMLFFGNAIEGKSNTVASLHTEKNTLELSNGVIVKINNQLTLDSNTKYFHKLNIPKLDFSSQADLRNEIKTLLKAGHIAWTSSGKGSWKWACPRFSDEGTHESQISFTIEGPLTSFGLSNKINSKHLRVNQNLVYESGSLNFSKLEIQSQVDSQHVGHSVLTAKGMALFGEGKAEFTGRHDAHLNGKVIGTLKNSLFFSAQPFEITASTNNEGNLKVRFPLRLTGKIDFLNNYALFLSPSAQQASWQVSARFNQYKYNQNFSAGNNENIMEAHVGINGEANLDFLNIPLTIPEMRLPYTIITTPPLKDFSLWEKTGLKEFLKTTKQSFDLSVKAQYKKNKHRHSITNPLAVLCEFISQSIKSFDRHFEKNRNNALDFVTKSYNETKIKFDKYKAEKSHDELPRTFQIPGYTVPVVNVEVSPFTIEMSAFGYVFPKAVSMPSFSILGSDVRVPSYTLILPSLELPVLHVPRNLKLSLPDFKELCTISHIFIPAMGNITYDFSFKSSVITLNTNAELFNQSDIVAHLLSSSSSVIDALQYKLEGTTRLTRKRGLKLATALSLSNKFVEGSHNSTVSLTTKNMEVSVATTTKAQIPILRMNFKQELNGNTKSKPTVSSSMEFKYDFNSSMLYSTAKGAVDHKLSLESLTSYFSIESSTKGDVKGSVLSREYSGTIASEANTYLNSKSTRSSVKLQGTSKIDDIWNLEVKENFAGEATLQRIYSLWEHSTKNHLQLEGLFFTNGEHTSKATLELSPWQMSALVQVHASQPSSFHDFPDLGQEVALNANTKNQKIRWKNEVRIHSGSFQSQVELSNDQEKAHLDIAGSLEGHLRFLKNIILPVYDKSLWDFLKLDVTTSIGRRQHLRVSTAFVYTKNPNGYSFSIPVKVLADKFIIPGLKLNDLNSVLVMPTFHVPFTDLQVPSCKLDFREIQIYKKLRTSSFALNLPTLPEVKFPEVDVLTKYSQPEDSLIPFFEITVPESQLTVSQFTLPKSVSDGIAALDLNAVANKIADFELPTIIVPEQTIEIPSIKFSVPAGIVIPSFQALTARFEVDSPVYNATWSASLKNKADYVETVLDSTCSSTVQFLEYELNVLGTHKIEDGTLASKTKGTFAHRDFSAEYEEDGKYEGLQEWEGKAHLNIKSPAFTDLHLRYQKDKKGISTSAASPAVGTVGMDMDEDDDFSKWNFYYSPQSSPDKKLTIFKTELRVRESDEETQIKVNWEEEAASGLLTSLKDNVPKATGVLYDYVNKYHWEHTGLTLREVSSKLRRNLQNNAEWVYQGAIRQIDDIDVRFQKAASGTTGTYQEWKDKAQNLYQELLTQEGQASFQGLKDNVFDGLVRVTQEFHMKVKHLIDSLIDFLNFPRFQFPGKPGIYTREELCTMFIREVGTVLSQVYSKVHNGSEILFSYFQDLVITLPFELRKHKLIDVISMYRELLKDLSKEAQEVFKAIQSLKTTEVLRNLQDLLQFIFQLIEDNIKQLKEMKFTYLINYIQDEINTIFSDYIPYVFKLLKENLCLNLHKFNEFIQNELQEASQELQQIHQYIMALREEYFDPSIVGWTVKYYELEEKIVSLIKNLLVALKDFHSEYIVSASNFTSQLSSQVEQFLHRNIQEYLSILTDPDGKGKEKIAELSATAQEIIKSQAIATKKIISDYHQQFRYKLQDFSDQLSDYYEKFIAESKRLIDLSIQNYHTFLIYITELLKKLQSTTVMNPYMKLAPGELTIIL", "assay": "Circular dichroism of LDL secondary structure", "details": "LDL 100 μg/ml with 10 μM compound, PBS pH 7.4, 37° C., up to 48 h; normal LDL ~40±2%", "experimental": "Spectra were recorded in the peptidic range (200-260 nm). To increase the signal-to-noise ratio, multiple spectra (three) were averaged for each measurement. The deconvolution of the molar elipticity spectra for each measurement was performed using the CDPro suite of software (by Narasimha Sreerama from Colorado State University) on a Dell PC."}}}
{"smiles": "CC(C)CCC[C@@H](C)[C@H]1CCC2C(CC=O)C([C@@]3(C)CC[C@H](O)CC3=O)CC[C@@]21C", "note": "(some centres unmarked) [4a, 3βHydroxy-5-oxo-5,6-secocholestan-6-al]", "values": [{"measurement": "lipid-loading of macrophages / foam cell formation", "setting": "J774.1 macrophages", "value": "began lipid-loading and foam cells began to appear"}, {"measurement": "induction of E-selectin levels", "setting": "E-selectin (CD62E); HAAE-1, 1.25 μM complexed with LDL (100 μg/mL protein)", "value": 2, "unit": "fold"}, {"measurement": "induction of E-selectin levels", "setting": "E-selectin (CD62E); HAAE-1, 50 μM complexed with LDL (100 μg/mL protein)", "value": "about 8 fold"}, {"measurement": "selectin (E-selectin) expression", "setting": "E-selectin (CD62E); HAAE-1, not complexed with LDL", "value": "no effects"}, {"measurement": "ICAM-1 levels", "setting": "ICAM-1 (CD54); HAAE-1, 25 μM compound in the presence of LDL, 4 h", "value": "remain unchanged"}, {"measurement": "integrin expression (ICAM-1)", "setting": "ICAM-1 (CD54); HAAE-1, not complexed with LDL", "value": "no effects"}, {"measurement": "aldolization of 4a", "setting": "[1]", "value": "no aldolization"}, {"measurement": "a helical structure of LDL", "setting": "LDL / apoB-100", "value": "~23±5", "unit": "%"}]}
